Measured values as given in EP2272817A1, “PAI-1 INHIBITOR” (Institute of Medicinal Molecular Design, Inc., priority 2008, dated 2009).
Where two headings read alike, the source gives them in different places.

Key:
recombinant human PAI-1 [1] = target: T1, recombinant human PAI-1 (Homo sapiens, UniProt P05121); assay: biochemical
Method: To this solution, 6 µl of 80 nM recombinant human PAI-1 (Molecular Innovations, Inc.) solution prepared with Tris buffer was added, and the plate was incubated for 5 minutes at room temperature. Furthermore, 30 µl of 800 IU/ml two-chain tPA (Activity Standard; American diagnostica, inc.) prepared with Tris buffer was added, and the mixed solution was incubated for 15 minutes at room temperature. Then, 30 µl of 400 µM fluorogenic substrate (Pyr-Gly-Arg-MCA; Peptide Institute, Inc.) for tPA prepared with Tris buffer was added and reacted for 30 minutes at room temperature.
50 mM Tris, 150 mM NaCl, 10 µg/ml BSA, 0.01 % Tween80 (SIGMA-ALDRICH Corporation)

recombinant human PAI-1 [2] = target: T1, recombinant human PAI-1; assay: Test Example 2: Human PAI-1 Inhibitory Activity (pH 7.4 HEPES buffer, 10 minutes incubation with two-chain tPA); type: biochemical; design: purchased Molecular Innovations, Inc; conditions: read-out: Inhibition Rate of PAI-1 Activity (%)
Method: 0.1 M HEPES, 0.1 M NaCl. 1 mM EDTA. 0.1 % Polyethylene glycol 8,000 (Hampton Research Corporation),
2 mM Dimethyldecylphoshine oxide [Apo-10] (Fluka Corporation)

[3] = read-out: Inhibition Rate of PAI Activity (%)
[4] = read-out: Inhibition Rate of PAI-1 Activity (%)

T1 sequence (P05121 24-402): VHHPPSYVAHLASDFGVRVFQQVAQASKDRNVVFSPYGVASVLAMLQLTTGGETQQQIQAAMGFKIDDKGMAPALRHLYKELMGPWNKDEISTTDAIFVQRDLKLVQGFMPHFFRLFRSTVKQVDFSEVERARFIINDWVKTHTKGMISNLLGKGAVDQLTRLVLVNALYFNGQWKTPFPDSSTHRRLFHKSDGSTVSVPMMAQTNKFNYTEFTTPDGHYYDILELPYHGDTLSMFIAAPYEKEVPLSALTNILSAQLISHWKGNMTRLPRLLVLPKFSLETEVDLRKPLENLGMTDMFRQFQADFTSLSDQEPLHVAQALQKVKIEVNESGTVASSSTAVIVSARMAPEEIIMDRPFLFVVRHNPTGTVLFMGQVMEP

Row | SMILES | inhibition at 0.1 µM (recombinant human PAI-1 [2]) | inhibition at 0.3 µM (recombinant human PAI-1 [2]) | inhibition at 1 µM (recombinant human PAI-1 [2]) | inhibition at 3 µM (recombinant human PAI-1 [2]) | other results
1 | Cc1cc(C)cc(COc2ccc(-c3ccc(OC(F)(F)F)cc3)cc2CC(=O)O)c1 [Compound 11] |  |  |  |  | inhibition at 5 µM (recombinant human PAI-1 [1]; [3]): 41%; inhibition at 10 µM (recombinant human PAI-1 [1]; [3]): 84%; inhibition at 25 µM (recombinant human PAI-1 [1]; [3]): 99%
2 | O=C(O)/C=C/c1cc(-c2ccc(OC(F)(F)F)cc2)ccc1Oc1ccc(OC(F)(F)F)cc1 [Compound 15] |  |  |  |  | inhibition at 5 µM (recombinant human PAI-1 [1]; [3]): 23%; inhibition at 10 µM (recombinant human PAI-1 [1]; [3]): 47%; inhibition at 25 µM (recombinant human PAI-1 [1]; [3]): 94%
3 | O=C(O)CCc1cc(-c2ccc(OC(F)(F)F)cc2)ccc1Oc1ccc(OC(F)(F)F)cc1 [Compound 16] |  |  |  |  | inhibition at 5 µM (recombinant human PAI-1 [1]; [3]): 23%; inhibition at 10 µM (recombinant human PAI-1 [1]; [3]): 46%; inhibition at 25 µM (recombinant human PAI-1 [1]; [3]): 96%
4 | O=C(O)CCc1cc(-c2ccc(OC(F)(F)F)cc2)ccc1OCc1ccc(F)cc1 [Compound 20] |  |  |  |  | inhibition at 10 µM (recombinant human PAI-1 [1]; [3]): 10%; inhibition at 25 µM (recombinant human PAI-1 [1]; [3]): 53%
5 | O=C(O)CCc1cc(-c2ccc(OC(F)(F)F)cc2)ccc1OCc1ccccc1C(F)(F)F [Compound 21] |  |  |  |  | inhibition at 10 µM (recombinant human PAI-1 [1]; [3]): 11%; inhibition at 25 µM (recombinant human PAI-1 [1]; [3]): 70%
6 | O=C(O)CCc1cc(-c2ccc(OC(F)(F)F)cc2)ccc1OCc1ccc(-c2ccccc2)cc1 [Compound 29] |  |  |  |  | inhibition at 5 µM (recombinant human PAI-1 [1]; [3]): 21%; inhibition at 10 µM (recombinant human PAI-1 [1]; [3]): 56%; inhibition at 25 µM (recombinant human PAI-1 [1]; [3]): 88%
7 | O=C(O)/C=C/c1cc(-c2ccc(OC(F)(F)F)cc2)ccc1OCc1cccc(C(F)(F)F)c1 [Compound 57] |  |  |  |  | inhibition at 5 µM (recombinant human PAI-1 [1]; [3]): 24%; inhibition at 10 µM (recombinant human PAI-1 [1]; [3]): 53%; inhibition at 25 µM (recombinant human PAI-1 [1]; [3]): 82%
8 | O=C(O)CCc1cc(-c2ccc(OC(F)(F)F)cc2)ccc1OCc1cccc(C(F)(F)F)c1 [Compound 58] |  |  |  |  | inhibition at 5 µM (recombinant human PAI-1 [1]; [3]): 22%; inhibition at 10 µM (recombinant human PAI-1 [1]; [3]): 53%; inhibition at 25 µM (recombinant human PAI-1 [1]; [3]): 97%
9 | Cc1cc(C)cc(COc2ccc(-c3ccc(OC(F)(F)F)cc3)cc2CCC(=O)O)c1 [Compound 59] |  |  |  |  | inhibition at 5 µM (recombinant human PAI-1 [1]; [3]): 25%; inhibition at 10 µM (recombinant human PAI-1 [1]; [3]): 53%; inhibition at 25 µM (recombinant human PAI-1 [1]; [3]): 77%
10 | Cc1ccc(COc2ccc(-c3ccc(OC(F)(F)F)cc3)cc2CCC(=O)O)cc1 [Compound 61] |  |  |  |  | inhibition at 5 µM (recombinant human PAI-1 [1]; [3]): 21%; inhibition at 10 µM (recombinant human PAI-1 [1]; [3]): 48%; inhibition at 25 µM (recombinant human PAI-1 [1]; [3]): 97%
11 | O=C(O)CCc1cc(-c2ccc(OC(F)(F)F)cc2)ccc1OCc1ccc(OC(F)(F)F)cc1 [Compound 62] |  |  |  |  | inhibition at 5 µM (recombinant human PAI-1 [1]; [3]): 29%; inhibition at 10 µM (recombinant human PAI-1 [1]; [3]): 62%; inhibition at 25 µM (recombinant human PAI-1 [1]; [3]): 99%
12 | CC(C)c1ccc(Oc2ccc(/C=C/C(=O)O)c(Oc3ccc(C(C)C)cc3)c2)cc1 [Compound 72] |  |  |  |  | inhibition at 5 µM (recombinant human PAI-1 [1]; [4]): 32%; inhibition at 10 µM (recombinant human PAI-1 [1]; [4]): 72%; inhibition at 25 µM (recombinant human PAI-1 [1]; [4]): 98%
13 | CC(C)c1ccc(Oc2ccc(/C=C\C(=O)O)c(Oc3ccc(C(C)C)cc3)c2)cc1 [Compound 74] |  |  |  |  | inhibition at 5 µM (recombinant human PAI-1 [1]; [4]): 13%; inhibition at 10 µM (recombinant human PAI-1 [1]; [4]): 53%; inhibition at 25 µM (recombinant human PAI-1 [1]; [4]): 96%
14 | CC(C)(C)c1ccc(COc2cc(-c3ccc(OC(F)(F)F)cc3)ccc2/C=C/C(=O)O)cc1 [Compound 75] |  |  |  |  | inhibition at 5 µM (recombinant human PAI-1 [1]; [4]): 25%; inhibition at 10 µM (recombinant human PAI-1 [1]; [4]): 53%; inhibition at 25 µM (recombinant human PAI-1 [1]; [4]): 91%
15 | CC(C)(C)c1ccc(COc2cc(Oc3ccc(OC(F)(F)F)cc3)ccc2/C=C/C(=O)O)cc1 [Compound 77] |  |  |  |  | inhibition at 5 µM (recombinant human PAI-1 [1]; [4]): 27%; inhibition at 10 µM (recombinant human PAI-1 [1]; [4]): 51%; inhibition at 25 µM (recombinant human PAI-1 [1]; [4]): 73%
16 | CC(C)(C)c1ccc(Oc2cc(-c3ccc(OC(F)(F)F)cc3)ccc2/C=C/C(=O)O)cc1 [Compound 79] |  |  |  |  | inhibition at 5 µM (recombinant human PAI-1 [1]; [4]): 39%; inhibition at 10 µM (recombinant human PAI-1 [1]; [4]): 84%; inhibition at 25 µM (recombinant human PAI-1 [1]; [4]): 90%
17 | COc1cc(-c2ccc(OC(F)(F)F)cc2)cc(/C=C/C(=O)O)c1OCc1ccc(C(C)(C)C)cc1 [Compound 81] |  |  |  |  | inhibition at 5 µM (recombinant human PAI-1 [1]; [4]): 28%; inhibition at 10 µM (recombinant human PAI-1 [1]; [4]): 63%; inhibition at 25 µM (recombinant human PAI-1 [1]; [4]): 70%
18 | COc1cc(-c2ccc(OC(F)(F)F)cc2)cc(CCC(=O)O)c1OCc1ccc(C(C)(C)C)cc1 [Compound 82] |  |  |  |  | inhibition at 5 µM (recombinant human PAI-1 [1]; [4]): 26%; inhibition at 10 µM (recombinant human PAI-1 [1]; [4]): 59%; inhibition at 25 µM (recombinant human PAI-1 [1]; [4]): 98%
19 | Cc1cc(-c2ccc(OC(F)(F)F)cc2)cc(/C=C/C(=O)O)c1OCc1ccc(C(C)(C)C)cc1 [Compound 83] |  |  |  |  | inhibition at 5 µM (recombinant human PAI-1 [1]; [4]): 27%; inhibition at 10 µM (recombinant human PAI-1 [1]; [4]): 46%; inhibition at 25 µM (recombinant human PAI-1 [1]; [4]): 56%
20 | Cc1cc(-c2ccc(OC(F)(F)F)cc2)cc(CCC(=O)O)c1OCc1ccc(C(C)(C)C)cc1 [Compound 84] |  |  |  |  | inhibition at 5 µM (recombinant human PAI-1 [1]; [4]): 28%; inhibition at 10 µM (recombinant human PAI-1 [1]; [4]): 62%; inhibition at 25 µM (recombinant human PAI-1 [1]; [4]): 95%
21 | CC(C)(C)c1ccc(COc2cccc(Oc3ccc(OC(F)(F)F)cc3)c2/C=C/C(=O)O)cc1 [Compound 85] |  |  |  |  | inhibition at 5 µM (recombinant human PAI-1 [1]; [4]): 40%; inhibition at 10 µM (recombinant human PAI-1 [1]; [4]): 61%; inhibition at 25 µM (recombinant human PAI-1 [1]; [4]): 85%
22 | CC(C)(C)c1ccc(COc2c(/C=C/C(=O)O)cccc2-c2ccc(OC(F)(F)F)cc2)cc1 [Compound 87] |  |  |  |  | inhibition at 5 µM (recombinant human PAI-1 [1]; [4]): 44%; inhibition at 10 µM (recombinant human PAI-1 [1]; [4]): 81%; inhibition at 25 µM (recombinant human PAI-1 [1]; [4]): 96%
23 | CCCCCOc1cc(N(CCCCc2ccccc2)C(=O)C(=O)O)ccc1-c1ccc(OC(F)(F)F)cc1 [Compound 654] | 4% | 19% | > 99% | > 99% | 

Row | SMILES | inhibition at 0.1 µM (recombinant human PAI-1 [2]) | inhibition at 0.3 µM (recombinant human PAI-1 [2]) | inhibition at 1 µM (recombinant human PAI-1 [2]) | inhibition at 3 µM (recombinant human PAI-1 [2]) | other results
24 | CCCCCOc1ccc(-c2ccc(OC(F)(F)F)cc2)cc1N(CCCOCc1ccccc1)C(=O)C(=O)O [Compound 655] | 3% | 0% | 44% | 97% | 
25 | O=C(O)C(=O)N(CCCCc1ccccc1)c1cc(-c2ccc(OC(F)(F)F)cc2)ccc1OCCCC1CCCCC1 [Compound 656] | 24% | 64% | 95% | 88% | 
26 | CCCCCN(C(=O)C(=O)O)c1cc(-c2ccc(OC(F)(F)F)cc2)ccc1OCCCOc1ccccc1 [Compound 657] | 15% | 20% | 99% | > 99% | 
27 | O=C(O)C(=O)N(CCCCc1ccccc1)c1cc(-c2ccc(OC(F)(F)F)cc2)ccc1OC1CCCC1 [Compound 658] | 9% | 20% | 97% | > 99% | 
28 | O=C(O)C(=O)N(CCCCc1ccccc1)c1cc(-c2ccc(OC(F)(F)F)cc2)ccc1OC1CCCCCC1 [Compound 659] | 12% | 26% | > 99% | 96% | 
29 | O=C(O)C(=O)N(Cc1ccc2ccccc2c1)c1ccc(-c2ccc(OC(F)(F)F)cc2)cc1 [Compound 661] | 6% | 11% | 27% | > 99% | 
30 | Cc1cc(C)cc(COc2ccc(-c3ccc(OC(F)(F)F)cc3)cc2N(CCCCc2ccccc2)C(=O)C(=O)O)c1 [Compound 662] | 18% | 28% | 98% | 95% | 
31 | CC(C)(C)[C@H]1CC[C@H](N(C(=O)C(=O)O)c2ccc(-c3ccc(OC(F)(F)F)cc3)cc2)CC1 [Compound 665] | 9% | 8% | 67% | > 99% | 
32 | CC(C)(C)[C@H]1CC[C@@H](N(C(=O)C(=O)O)c2ccc(-c3ccc(OC(F)(F)F)cc3)cc2)CC1 [Compound 666] | 0% | 21% | 89% | 98% | 
33 | CCCCCCCCCCN(C(=O)C(=O)O)c1ccc(-c2ccc(OC(F)(F)F)cc2)cc1 [Compound 669] | 28% | 34% | > 99% | > 99% | 
34 | CCCCCOc1ccc(-c2ccc(OC(F)(F)F)cc2)cc1N(CCCCc1cc(C)ccc1C)C(=O)C(=O)O [Compound 670] | 6% | 55% | 97% | 94% | 
35 | O=C(O)C(=O)N(CCCCc1ccccc1)c1ccc(-c2ccc3ccccc3c2)cc1 [Compound 671] | 26% | 12% | 23% | 92% | 
36 | CCCCCOc1ccc(-c2cc(C)cc(C)c2)cc1N(CCCCc1ccccc1)C(=O)C(=O)O [Compound 672] | 3% | 15% | 92% | > 99% | 
37 | O=C(O)C(=O)N(CCCCc1ccccc1)c1ccc(N2CCCC2)c(-c2ccc(OC(F)(F)F)cc2)c1 [Compound 673] | 0% | 15% | > 99% | > 99% | 
38 | O=C(O)C(=O)N(CCCCc1ccccc1)c1ccc(N2CCCCCC2)c(-c2ccc(OC(F)(F)F)cc2)c1 [Compound 674] | 5% | 55% | > 99% | 98% | 
39 | O=C(O)C(=O)N(CCCCc1ccccc1)c1ccc(N2CCSCC2)c(-c2ccc(OC(F)(F)F)cc2)c1 [Compound 675] | 10% | 14% | 95% | > 99% | 
40 | O=C(O)C(=O)N(CCCCc1ccccc1)c1cc(-c2ccc(OC(F)(F)F)cc2)ccc1OCCCCCO [Compound 676] | 7% | 4% | 60% | > 99% | 
41 | CCCCCOc1ccc(-c2ccc(C)cc2)cc1N(CCCCc1ccccc1)C(=O)C(=O)O [Compound 677] | 19% | 17% | 93% | 96% | 
42 | CCCCCOc1ccc(-c2ccc(C(C)C)cc2)cc1N(CCCCc1ccccc1)C(=O)C(=O)O [Compound 678] | 19% | 33% | 97% | 94% | 
43 | CC(C)(C)[C@H]1CC[C@H](CN(C(=O)C(=O)O)c2ccc(-c3ccc(OC(F)(F)F)cc3)cc2)CC1 [Compound 679] | 6% | 9% | 84% | > 99% | 
44 | CC(C)(C)[C@H]1CC[C@@H](CN(C(=O)C(=O)O)c2ccc(-c3ccc(OC(F)(F)F)cc3)cc2)CC1 [Compound 680] | 7% | 9% | 77% | > 99% | 
45 | CCCCCOc1ccc(-c2ccc(OC(F)(F)F)cc2)cc1N(CC(=O)O)C(=O)CCCc1ccccc1 [Compound 682] | 2% | 5% | 32% | 98% | 
